The values that follow come from ChEMBL document CHEMBL1201862, “PubChem BioAssay data set” (2004).

For experiment [1], the target named is Ras and Rab interactor 1/Tyrosine-protein kinase ABL1 (Homo sapiens, UniProt P00519+Q13671). It counts as functional.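 Further: biochemical TR-FRET dose-response test measuring inhibition of binding between Rin1 and Abl proteins.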
Experiment [2] has as its target T1, Short transient receptor potential channel 4 (Mus musculus, UniProt Q9QUQ5).
T1 sequence (Q9QUQ5 whole entry): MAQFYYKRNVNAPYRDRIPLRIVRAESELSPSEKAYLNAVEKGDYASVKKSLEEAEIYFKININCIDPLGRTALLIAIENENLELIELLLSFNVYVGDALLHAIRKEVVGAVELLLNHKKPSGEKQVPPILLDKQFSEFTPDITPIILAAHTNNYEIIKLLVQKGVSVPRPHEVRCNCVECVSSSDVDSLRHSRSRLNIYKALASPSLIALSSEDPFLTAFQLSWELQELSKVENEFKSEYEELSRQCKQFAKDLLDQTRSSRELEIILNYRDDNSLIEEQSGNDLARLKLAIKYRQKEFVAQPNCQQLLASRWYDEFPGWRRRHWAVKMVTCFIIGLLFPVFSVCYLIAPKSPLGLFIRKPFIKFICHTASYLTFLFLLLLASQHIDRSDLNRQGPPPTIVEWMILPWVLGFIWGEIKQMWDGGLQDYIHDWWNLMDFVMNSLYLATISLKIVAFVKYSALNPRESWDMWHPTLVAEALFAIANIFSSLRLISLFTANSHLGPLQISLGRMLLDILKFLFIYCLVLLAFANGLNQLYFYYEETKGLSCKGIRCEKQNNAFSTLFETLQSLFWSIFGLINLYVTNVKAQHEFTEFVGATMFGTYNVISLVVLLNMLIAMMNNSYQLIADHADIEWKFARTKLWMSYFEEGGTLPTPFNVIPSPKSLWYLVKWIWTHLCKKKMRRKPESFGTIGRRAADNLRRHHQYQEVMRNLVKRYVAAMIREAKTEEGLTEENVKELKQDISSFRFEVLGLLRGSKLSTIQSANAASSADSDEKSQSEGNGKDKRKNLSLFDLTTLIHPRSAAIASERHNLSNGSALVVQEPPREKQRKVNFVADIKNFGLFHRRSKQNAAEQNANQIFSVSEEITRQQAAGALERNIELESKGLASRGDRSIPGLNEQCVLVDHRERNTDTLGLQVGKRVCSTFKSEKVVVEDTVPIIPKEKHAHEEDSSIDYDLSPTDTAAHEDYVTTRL
The experiment in a line: mouse TRPC4 channel activators, dose response, cell-based, HEK293 TRPC4/mu-opioid, Fluo-4 calcium (AID 434937). Format: functional.

Experiment [3] can be described thus: cytotoxicity toward NIH3T3 fibroblasts, dose response, counter-screen, cell-based, ATP luminescence, mouse fibroblasts (AID 2010).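 Further: cells exposed to compound for about 90 hours before reading.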 Format: functional.
Experiment [4] can be described thus: inhibitors of intracellular T. cruzi replication, confirmation, NIH3T3 host cells, beta-gal luminescence (AID 2044).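 Further: intracellular parasites grown in NIH/3T3 mouse fibroblasts as host cells; luminescent beta-galactosidase reporter signal from transgenic T. cruzi replicating inside host cells; inhibitors lower the luminescence signal.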 Format: functional, cell-based.
For experiment [5], the target named is T2, Low molecular weight phosphotyrosine protein phosphatase (Homo sapiens, UniProt P24666).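 Further: Dose-response confirmation assay measuring inhibition of LMPTP enzyme activity by fluorescence intensity read-out.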
T2 sequence (P24666 whole entry): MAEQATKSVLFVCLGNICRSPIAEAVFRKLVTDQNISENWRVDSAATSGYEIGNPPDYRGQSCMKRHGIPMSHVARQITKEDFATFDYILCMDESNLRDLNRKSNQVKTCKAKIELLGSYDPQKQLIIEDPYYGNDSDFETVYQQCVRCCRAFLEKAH
It counts as functional. The following applies: read-out: IC50_Mean.

A short description of experiment [6]: HepG2 cell cytotoxicity, dose response, cytotoxicity control for Shn3 inhibitor project, CellTiter-Glo, cherry-picked (AID 624134). It counts as functional, cell-based. (ATP-based viability assays read luminescence as a measure of living cells.)
Experiment [7] is described as follows: control 3'UTR Renilla luciferase suppression, dose response, counter-screen for Shn3 inhibitor project, cell-based, Clone20-Shn3RL, cherry-picked (AID 624133). Format: functional. On the technique in general: Counterscreens check selectivity or assay interference.
Experiment [8] can be described thus: Shn3 3'UTR reporter inhibitors, dose response, cell-based, Clone20 osteoblasts, firefly luciferase, cherry-picked (AID 624132).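 Further: firefly luciferase luminescence from reporter carrying the Shn3 3'UTR in osteoblasts.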 Format: functional.
Experiment [9] can be described thus: HEp-2 cell cytotoxicity, dose response, cytotoxicity control for RSV inhibitor project, HTS (AID 2410). The conditions noted are these: human respiratory syncytial virus. Format: functional.
Experiment [10] addresses T3, Hepatocyte nuclear factor 4-alpha (Homo sapiens, UniProt P41235).
T3 sequence (P41235 whole entry): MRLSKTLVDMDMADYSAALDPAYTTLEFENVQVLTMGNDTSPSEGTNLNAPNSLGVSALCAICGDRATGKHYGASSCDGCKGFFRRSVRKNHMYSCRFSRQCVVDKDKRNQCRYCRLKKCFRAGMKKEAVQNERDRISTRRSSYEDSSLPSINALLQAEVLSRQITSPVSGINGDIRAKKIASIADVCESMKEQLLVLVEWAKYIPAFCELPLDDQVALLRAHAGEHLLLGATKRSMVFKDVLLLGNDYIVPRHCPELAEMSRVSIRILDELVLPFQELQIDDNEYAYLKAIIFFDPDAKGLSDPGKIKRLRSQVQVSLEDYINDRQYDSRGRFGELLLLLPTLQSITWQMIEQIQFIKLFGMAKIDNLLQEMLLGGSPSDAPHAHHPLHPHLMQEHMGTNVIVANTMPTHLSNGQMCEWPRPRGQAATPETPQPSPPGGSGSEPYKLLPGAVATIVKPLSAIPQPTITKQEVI
Format: functional, cell-based.

A short description of experiment [11]: cytotoxicity in HEK-293T cells, dose response, cytotoxicity control for TCR NF-kB inhibitor project, luminescence, T-cell screen hits (AID 489026).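 Further: cells exposed to compound about 14 hours before the viability readout.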 It counts as functional, cell-based.
In the next experiment the target is T4, Protein RecA (Mycobacterium tuberculosis, UniProt P9WHJ3).
T4 sequence (P9WHJ3 whole entry): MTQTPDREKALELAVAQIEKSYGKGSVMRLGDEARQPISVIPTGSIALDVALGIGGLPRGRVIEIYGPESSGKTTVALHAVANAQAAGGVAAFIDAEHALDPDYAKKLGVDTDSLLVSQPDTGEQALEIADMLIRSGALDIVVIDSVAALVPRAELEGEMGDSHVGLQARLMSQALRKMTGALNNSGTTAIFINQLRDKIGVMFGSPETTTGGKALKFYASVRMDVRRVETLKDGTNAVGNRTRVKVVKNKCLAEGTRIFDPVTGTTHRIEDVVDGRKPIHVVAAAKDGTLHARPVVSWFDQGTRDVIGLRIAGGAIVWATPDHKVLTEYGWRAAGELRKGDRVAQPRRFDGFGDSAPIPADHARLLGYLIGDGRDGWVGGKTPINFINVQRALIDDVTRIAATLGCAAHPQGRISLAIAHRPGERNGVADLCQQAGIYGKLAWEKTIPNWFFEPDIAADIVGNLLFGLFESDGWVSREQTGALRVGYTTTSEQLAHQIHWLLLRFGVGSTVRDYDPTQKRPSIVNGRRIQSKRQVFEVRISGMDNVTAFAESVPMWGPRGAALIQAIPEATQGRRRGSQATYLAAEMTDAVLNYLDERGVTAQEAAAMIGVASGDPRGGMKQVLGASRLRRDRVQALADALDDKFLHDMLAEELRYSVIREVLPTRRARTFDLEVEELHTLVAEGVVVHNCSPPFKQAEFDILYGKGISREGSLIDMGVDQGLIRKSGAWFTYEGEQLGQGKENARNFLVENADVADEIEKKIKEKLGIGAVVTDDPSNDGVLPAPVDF
In words: Fluorescence Cell-Free Homogeneous Dose Retest to Identify Inhibitors of RecA-Intein Splicing Activity. [Related pubchem assays (depositor defined):AID2097, AID2223, AID489010, AID492950]. It counts as functional.

Experiment [12] is described as follows: Luminescence Cell-Based Dose Retest to Confirm Inhibitors of Cancer Stem Cells. [Related pubchem assays (depositor defined):AID2717, AID2721]. It counts as functional. The following applies: Homo sapiens.
Experiment [13] deals with T5, Replicative DNA helicase DnaB (Mycobacterium tuberculosis, UniProt P9WMR3).
T5 sequence (P9WMR3 whole entry): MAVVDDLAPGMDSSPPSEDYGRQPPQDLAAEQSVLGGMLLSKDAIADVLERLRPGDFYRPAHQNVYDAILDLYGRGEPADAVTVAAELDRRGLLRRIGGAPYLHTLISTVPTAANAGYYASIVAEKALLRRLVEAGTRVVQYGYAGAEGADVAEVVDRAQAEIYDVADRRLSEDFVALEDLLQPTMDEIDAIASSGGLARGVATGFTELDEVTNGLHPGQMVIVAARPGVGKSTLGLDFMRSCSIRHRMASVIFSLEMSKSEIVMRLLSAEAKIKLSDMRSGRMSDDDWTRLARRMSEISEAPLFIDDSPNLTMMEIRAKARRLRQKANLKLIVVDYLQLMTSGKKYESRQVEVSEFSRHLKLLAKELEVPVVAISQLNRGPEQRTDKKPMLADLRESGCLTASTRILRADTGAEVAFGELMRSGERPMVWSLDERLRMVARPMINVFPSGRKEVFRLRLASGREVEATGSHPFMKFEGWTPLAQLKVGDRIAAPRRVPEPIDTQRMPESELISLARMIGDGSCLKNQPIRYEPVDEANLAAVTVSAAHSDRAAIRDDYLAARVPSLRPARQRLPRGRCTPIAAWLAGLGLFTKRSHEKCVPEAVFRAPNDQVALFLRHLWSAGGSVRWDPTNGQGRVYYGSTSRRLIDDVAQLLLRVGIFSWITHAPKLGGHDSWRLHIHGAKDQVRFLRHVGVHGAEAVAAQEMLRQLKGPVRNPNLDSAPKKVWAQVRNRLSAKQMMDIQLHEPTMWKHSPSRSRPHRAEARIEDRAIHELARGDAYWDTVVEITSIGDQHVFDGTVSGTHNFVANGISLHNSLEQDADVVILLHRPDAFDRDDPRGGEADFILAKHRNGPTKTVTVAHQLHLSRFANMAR
In words: DnaB intein splicing inhibitors, dose response, biochemical, cell-free fluorescence (AID 449749). It counts as functional.

Another experiment concerns the target Melanocortin receptor 4 (Homo sapiens, UniProt P32245). Format: functional, cell-based.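 Further: Cell-based assay with luminescence read-out, confirmatory dose-response testing for agonist activity of biased ligands at MC4R; human U2OS cells with tagged receptor and beta-arrestin; potency of agonists that increase receptor coupling to beta-arrestin.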
The test system of the next experiment is H9c2. In words: cells. The conditions noted are these: Rattus norvegicus, H9c2, Myocardium. Format: functional, cell-based.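 Further: confirmatory concentration-response retest of ultra-high-throughput screening hits for modulation of myocardial damage; cell death induced by hydrogen peroxide oxidative stress; compound pretreatment for 60 min then peroxide exposure for 2 h; potency is for protecting the cells against peroxide damage rather than for killing them.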

The structures appear in SMILES notation. Active and inactive are the calls of the source.

Chain of Ras and Rab interactor 1/Tyrosine-protein kinase ABL1 (P00519 whole entry): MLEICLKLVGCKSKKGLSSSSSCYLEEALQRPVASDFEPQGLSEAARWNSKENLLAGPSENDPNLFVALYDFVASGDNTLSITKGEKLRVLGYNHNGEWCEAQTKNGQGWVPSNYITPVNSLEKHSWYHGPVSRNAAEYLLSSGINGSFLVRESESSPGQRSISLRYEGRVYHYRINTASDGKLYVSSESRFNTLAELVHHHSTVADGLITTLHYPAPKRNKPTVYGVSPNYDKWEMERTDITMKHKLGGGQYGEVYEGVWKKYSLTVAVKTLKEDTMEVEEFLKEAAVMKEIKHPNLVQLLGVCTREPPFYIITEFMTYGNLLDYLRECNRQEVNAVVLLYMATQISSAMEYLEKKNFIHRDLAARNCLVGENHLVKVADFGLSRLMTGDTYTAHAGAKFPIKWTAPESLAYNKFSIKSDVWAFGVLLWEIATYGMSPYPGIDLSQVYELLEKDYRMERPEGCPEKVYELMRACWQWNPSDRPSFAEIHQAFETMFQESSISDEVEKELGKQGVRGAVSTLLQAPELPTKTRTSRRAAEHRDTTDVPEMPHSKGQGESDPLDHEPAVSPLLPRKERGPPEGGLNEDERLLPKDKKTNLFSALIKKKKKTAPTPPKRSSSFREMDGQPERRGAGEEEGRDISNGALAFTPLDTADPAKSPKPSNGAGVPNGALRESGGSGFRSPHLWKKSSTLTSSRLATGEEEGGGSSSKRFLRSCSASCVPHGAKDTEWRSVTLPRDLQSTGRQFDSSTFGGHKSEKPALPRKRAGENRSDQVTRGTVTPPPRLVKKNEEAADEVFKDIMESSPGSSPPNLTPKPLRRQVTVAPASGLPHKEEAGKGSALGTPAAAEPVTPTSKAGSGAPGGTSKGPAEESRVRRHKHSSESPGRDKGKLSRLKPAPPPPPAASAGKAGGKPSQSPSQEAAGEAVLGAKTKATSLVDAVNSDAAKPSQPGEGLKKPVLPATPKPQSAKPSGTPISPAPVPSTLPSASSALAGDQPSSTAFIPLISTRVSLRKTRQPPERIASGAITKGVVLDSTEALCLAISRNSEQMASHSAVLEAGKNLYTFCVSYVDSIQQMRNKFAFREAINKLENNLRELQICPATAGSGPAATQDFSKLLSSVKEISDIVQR
Chain of Ras and Rab interactor 1/Tyrosine-protein kinase ABL1 (Q13671 whole entry): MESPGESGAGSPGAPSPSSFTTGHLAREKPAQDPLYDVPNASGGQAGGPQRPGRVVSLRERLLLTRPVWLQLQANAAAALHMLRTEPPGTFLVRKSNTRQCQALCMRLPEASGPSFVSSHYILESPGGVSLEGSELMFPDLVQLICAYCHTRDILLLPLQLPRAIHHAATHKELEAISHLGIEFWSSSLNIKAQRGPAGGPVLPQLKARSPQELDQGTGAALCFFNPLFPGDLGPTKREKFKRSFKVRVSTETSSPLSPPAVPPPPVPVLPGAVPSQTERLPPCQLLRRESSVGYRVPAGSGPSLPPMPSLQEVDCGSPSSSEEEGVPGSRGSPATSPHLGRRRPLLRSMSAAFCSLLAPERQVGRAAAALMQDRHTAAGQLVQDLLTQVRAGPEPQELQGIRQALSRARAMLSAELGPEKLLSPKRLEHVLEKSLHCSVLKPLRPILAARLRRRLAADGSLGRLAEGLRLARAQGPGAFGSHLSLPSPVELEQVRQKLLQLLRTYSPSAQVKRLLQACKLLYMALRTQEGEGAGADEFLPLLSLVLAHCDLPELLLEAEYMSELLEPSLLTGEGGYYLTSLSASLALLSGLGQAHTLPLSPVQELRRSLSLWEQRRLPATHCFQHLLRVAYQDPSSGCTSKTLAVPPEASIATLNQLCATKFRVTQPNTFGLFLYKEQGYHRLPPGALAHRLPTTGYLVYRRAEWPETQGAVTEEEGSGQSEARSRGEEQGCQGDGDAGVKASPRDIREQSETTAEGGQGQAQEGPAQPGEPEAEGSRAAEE
Chain of Melanocortin receptor 4 (P32245 whole entry): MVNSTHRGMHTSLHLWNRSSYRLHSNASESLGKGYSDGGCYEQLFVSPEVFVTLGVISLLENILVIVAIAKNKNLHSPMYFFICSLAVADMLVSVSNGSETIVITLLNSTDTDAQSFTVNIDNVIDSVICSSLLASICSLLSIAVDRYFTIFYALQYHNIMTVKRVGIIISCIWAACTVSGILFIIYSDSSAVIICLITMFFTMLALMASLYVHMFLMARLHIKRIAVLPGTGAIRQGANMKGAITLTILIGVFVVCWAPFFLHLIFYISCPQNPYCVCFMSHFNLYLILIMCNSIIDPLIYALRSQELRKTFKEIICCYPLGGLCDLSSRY

In the case of `C=CCn1c2ccccc2c2nnc(SCc3[nH]c(=O)[nH]c3C(=O)CCCCC(=O)OCC)nc21`, the IC50 in experiment [1] is 2.19 µM (active).

For orientation: EC50 means the concentration needed to bring the measured effect to its halfway point. In the case of `CCCCN(CC)CCNC(=O)Cn1cc2c(n1)-c1c(oc(C(=O)N3CCCC3)c1C)CC2`, the EC50 in experiment [2] is 267 nM (active). As for `COc1ccc(CCNCc2ccc(SC)cc2)cc1`, the values for the EC50 in [3], in experiment [4] and in [2] were > 60 µM (not active), 225 nM (active) and 5310 nM (active), respectively. On to `CCn1cc(C(=O)O)c(=O)c2cc(F)c(N3CCN(C(=S)NC(=O)c4ccccc4Br)CC3)cc21`, for which the IC50 in experiment [5] is 4.66 µM (active). For orientation: AC50 means the midpoint of the concentration-response curve, whichever way the signal moves. `Cc1ccc2nc(-c3cccc(SC4CCCCC4)c3)c(NCc3ccccc3)n2c1`: the AC50 was > 70 µM (inactive) in experiment [6], 5.3 µM (active) in experiment [7] and 3.53 µM (active) in experiment [8].

As to `Cc1sc2ncnc(NCC(c3ccco3)N3CCCC3)c2c1C` (stereo unspecified), the EC50 in experiment [2] was 17.3 nM (active). One may read the CC50 as the concentration that lowers cell viability or growth by half. As for `Cc1cccc(N(Cc2ccccc2)C(=O)Cc2ccc(S(=O)(=O)N3CCOCC3)s2)c1`, the IC50 in [1] is 18.6 µM (inactive). The CC50 in experiment [9] is 22 µM (active).

`O=C(NCc1ccccc1)C(c1ccc(C(F)(F)F)cc1)n1c(=O)c(-c2ccco2)nc2ccccc21` (stereo unspecified): the IC50 in experiment [10] was 2.02 µM (active). Turning to `CCOC(=O)c1[nH]c(C)c(C(=O)Nc2cc(Cl)ccc2C)c1C`, the IC50 in experiment [11] was > 80 µM (inactive). Take `CCCCCNC(=O)C(c1ccccc1F)n1c(=O)c(-c2ccco2)nc2ccccc21` (stereo unspecified): the IC50 in [10] is 0.97 µM (active). With `Cc1cc(C)c(C(CC(=O)c2cccs2)C(C#N)C#N)c(C)c1` (stereo unspecified), the EC50 at Protein RecA is 2.31 µM (active). For the same molecule, the values for the AC50 in [12] and in experiment [13] were 5.08 µM (active) and 3.42 µM (active), respectively. For the same molecule, the IC50 in experiment [10] was 8.02 µM (active). In the case of `CC(=O)c1cccc(-c2cnc3c(NC=O)cc(-c4ccccc4F)cn23)c1`, the EC50 at Melanocortin receptor 4 is > 89.2 µM (inactive). Besides, the IC50 in the experiment on H9c2 was > 79 µM (inactive).
